Measurements published in US20090156404A1, “Methods and Compositions for Reducing Stress in Plants” (CROP MICROCLIMATE MANAGEMENT, INC., priority 2007, published 2009).

What was measured:
Format in all cases: in vivo, tomato
tomatoes (var. Marglobe) [1] = test: Freeze event, greenhouse grown tomatoes sprayed with composition (Example 1); conditions: exposures to −3.3° C
Excerpt: Unadapted plants in trays were sprayed with a composition comprised of a particulate material and a plant growth regulating compound mixed with water. The composition was applied using a backpack sprayer in a factorial trial design. The particulate material used was kaolin, applied at 25 and 50 kg/ha. […] Two plant growth regulating compounds, methyl salicylate and sodium salicylate, were each mixed individually with the kaolin. In addition to combinations of kaolin and each of the plant growth regulating compounds, the experiment included applying kaolin alone and each of the plant growth regulating compounds alone, each mixed with water. The concentrations of each of the plant growth regulating compounds in the composition were 1×10^−4M and 1×10^−5M.

tomatoes (var. Marglobe) [2] = test: Growth chamber induced temperature/light stress in tomatoes (Example 2); conditions: for Chlorosis (%): after five days, 4 to 42° C
Protocol: In this example, a growth chamber was used to induce stress in plants. Tomatoes (var. Marglobe) were greenhouse grown, then adapted in the growth chamber for two days at a constant 20° C. and the highest light intensity produced by the growth chamber. The temperature was then programmed for a multi-step diurnal variation between about 4 and about 42° C. The plants were treated with a composition comprised of a particulate material and a plant growth regulating compound mixed with water. The particulate material used was Kaolin, applied at 25 and 50 kg/ha. […] The plant growth regulating compound was sodium salicylate, which was applied at 1×10^−4M and 1×10^−5M in the composition. In addition to combinations of kaolin and the plant growth regulating compound, the experiment included applying kaolin alone and the plant growth regulating compound alone, each mixed with water.

[3] = tested on: Field-grown tomatoes (var. Better Boy); test: Field trial without irrigation, weekly treatments (Example 3)
Excerpt: Treatment consisted of a composition comprised of a particulate material and a plant growth regulating compound mixed with water. The particulate material was kaolin, applied at 25 and 50 kg/ha. […] The plant growth regulating compound was sodium salicylate, which was applied at a concentration of 1×10^−5M in the composition. In addition to combinations of kaolin and the plant growth regulating compound, the experiment included applying kaolin alone and the plant growth regulating compound alone, each mixed with water. The trial was conducted in a grower field of sandy soil in Wake County, N.C. under grower conditions. The conditions were considered to be severe, as there was no irrigation and rainfall was insufficient during the trial. Treatments were applied at weekly intervals. The trial was a randomized complete block design with three replications.

[4] = tested on: early season tomatoes (var. Mountain Spring); test: Irrigated field trial, flower abortion (Example 4); conditions: 1 × 10^−5M
Excerpt: In addition to combinations of kaolin and the plant growth regulating compound, the experiment included applying kaolin alone and the plant growth regulating compound alone, each mixed with water.

Potted tomatoes = test: Chill stress of potted tomatoes under field conditions (Example 5); conditions: particulate 0 kg/ha, rating 10 completely healthy, 0 dead
Excerpt: Potted tomatoes under field conditions were subjected to cold temperatures in Australia in September-October 2007. […] The plants were sprayed with a composition comprised of particulate material and a plant growth regulating compound mixed with water. The particulate material used was kaolin, applied at 25 and 50 kg/ha. […] Two plant growth regulating compounds, sodium salicylate and benzyl acetate, were each mixed individually with the kaolin. The concentration of each plant growth regulating compound in the composition was 1×10^−5M. In addition to combinations of kaolin and each of the plant growth regulating compounds, the experiment included applying kaolin alone and sodium salicylate alone each mixed with water. The vigor and health of the plants were evaluated during the period of the trial.

COC(=O)c1ccccc1O [Me Salicylate, methyl salicylate]
Mortality (%) (tomatoes (var. Marglobe) [1]; 1 × 10^−4M): 0%
Mortality (%) (tomatoes (var. Marglobe) [1]; 1 × 10^−5M): 20%

O=C([O-])c1ccccc1O.[Na+] [Na Salicylate, sodium salicylate]
Mortality (%) (tomatoes (var. Marglobe) [1]; 1 × 10^−4M): 83%
Mortality (%) (tomatoes (var. Marglobe) [1]; 1 × 10^−5M): 6.3%
Growth (cm) (tomatoes (var. Marglobe) [2]; 1 × 10^−4M): 1.9 cm
Chlorosis (%) (tomatoes (var. Marglobe) [2]; 1 × 10^−4M): 7.5%
Growth (cm) (tomatoes (var. Marglobe) [2]; 1 × 10^−5M): 1.9 cm
Chlorosis (%) (tomatoes (var. Marglobe) [2]; 1 × 10^−5M): 8.8%
# flower clusters/plant ([3]; Rating 1, 1 × 10^−5M): 2.61
# Fruit > 2 cm ([3]; Rating 2, 1 × 10^−5M): 1.05
# flower clusters/plant ([3]; Rating 2, 1 × 10^−5M): 3.78
# Mature blossoms ([3]; Rating 3, 1 × 10^−5M): 2.89
# clusters/plant ([3]; Rating 3, 1 × 10^−5M): 0.75
Fruit > 1 cm ([3]; Rating 3, 1 × 10^−5M): 1.46
stress protection (in words) ([3]; plant growth, flowering, fruit clusters per plant, no irrigation): values intermediate between the untreated plants and the plants treated with both
# Aborted Flowers/Plant ([4]; Rating 1): 20.75
# Aborted Flowers/Plant ([4]; Rating 2): 3.94
Plant Vigor/Health (Potted tomatoes; 7/10/2007, growth compound 0.8 g/ha): 7.7 a
Plant Vigor/Health (Potted tomatoes; 7/10/2007, growth compound 1.6 g/ha): 7.3 a
Plant Vigor/Health (Potted tomatoes; 12/9/2007, growth compound 0.8 g/ha): 10 a
Plant Vigor/Health (Potted tomatoes; 12/9/2007, growth compound 1.6 g/ha): 10 a
Plant Vigor/Health (Potted tomatoes; 26/09/2007, growth compound 0.8 g/ha): 6.5 ab
Plant Vigor/Health (Potted tomatoes; 26/09/2007, growth compound 1.6 g/ha): 6.5 ab
